According to PubChem BioAssay (NCI):
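Interpolation was linear, between the two tested concentrations surrounding the appropriate level; five concentrations were tested over 48 hours in 96-well plates. Here, GI50 denotes the concentration required for 50% inhibition of growth. TGI denotes the concentration required for complete inhibition of growth.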

Key:
Test in all cases: NCI anticancer screen, dose series, 48 h
HT29 colon = test system: HT29 colon
BT-549 breast = test system: BT-549 breast
SF-539 CNS = test system: SF-539 CNS
SF-295 CNS = test system: SF-295 CNS
OVCAR-8 ovarian = test system: OVCAR-8 ovarian
NCI-H522 lung = test system: NCI-H522 lung
SW-620 colon = test system: SW-620 colon
RXF 393 renal = test system: RXF 393 renal
SN12C renal = test system: SN12C renal
SK-MEL-5 melanoma = test system: SK-MEL-5 melanoma

| Compound | GI50 (HT29 colon) | TGI (HT29 colon) | GI50 (BT-549 breast) | TGI (BT-549 breast) | GI50 (SF-539 CNS) | TGI (SF-539 CNS) | GI50 (SF-295 CNS) | TGI (SF-295 CNS) | GI50 (OVCAR-8 ovarian) | TGI (OVCAR-8 ovarian) | GI50 (NCI-H522 lung) | TGI (NCI-H522 lung) | GI50 (SW-620 colon) | TGI (SW-620 colon) | GI50 (RXF 393 renal) | TGI (RXF 393 renal) | GI50 (SN12C renal) | TGI (SN12C renal) | TGI (SK-MEL-5 melanoma) | GI50 (SK-MEL-5 melanoma) |
| --- | --- | --- | --- | --- | --- | --- | --- | --- | --- | --- | --- | --- | --- | --- | --- | --- | --- | --- | --- | --- |
| C/C(=N\O)c1ccc(Nc2cc(-c3ccccc3)nc3c(O)cccc23)cc1 | 19.8 µM | 48.1 µM | 23.3 µM | 86.6 µM | 15.3 µM | 29.6 µM | 5.24 µM | 18.3 µM | 6.99 µM | 29.2 µM | 16.7 µM | 33.3 µM | 13.9 µM | 34.2 µM | 7.47 µM | 24.7 µM | 11.9 µM | 27.6 µM |  |  |
| CN=C(NC#N)NCc1ccccc1 |  | > 100 µM |  |  |  | > 100 µM |  | > 100 µM |  | > 100 µM |  | > 100 µM |  | > 100 µM |  |  |  | > 100 µM | > 100 µM |  |
| CC(=O)NC1C(OCc2ccccc2)OC(COC(=O)CCCCCCCCCCNC(=O)CCNc2ccc([N+](=O)[O-])c3[nH]c4ccc(O)cc4c(=O)c23)C(O)C1OC(C)C(=O)N[C@H](C(=O)N[C@H](CCC(=O)O)C(N)=O)C(C)C (stereo partly drawn) |  | > 100 µM |  |  |  | > 100 µM |  | > 100 µM |  | > 100 µM |  | 40.4 µM |  |  |  | > 100 µM |  | > 100 µM | > 100 µM |  |
| CC(=O)c1ccc(-c2ccc(C(C)=O)s2)s1 |  | > 100 µM |  |  |  | > 100 µM |  | > 100 µM |  | > 100 µM |  | > 100 µM |  | > 100 µM |  | > 100 µM |  | > 100 µM | > 100 µM |  |
| O=C(NCCOCCO)c1ccc(O)cc1 |  |  |  |  |  | > 100 µM |  |  |  | > 100 µM |  | > 100 µM |  | > 100 µM |  | > 100 µM |  | > 100 µM | > 100 µM |  |
| O=C1C2Cc3ccccc3CN2C(=O)N1CCN1CCOCC1 (stereo not drawn) |  |  |  |  |  | > 100 µM |  | > 100 µM |  | > 100 µM |  | > 100 µM |  | > 100 µM |  |  |  | > 100 µM | > 100 µM |  |
| Nc1c(-c2ccc(-c3c(N)[n+]([O-])c4ccccc4[n+]3[O-])cc2)[n+]([O-])c2ccccc2[n+]1[O-] |  | 27.1 µM |  |  |  | 18.2 µM |  | 36.7 µM |  | > 100 µM |  | 3.65 µM |  | 21.6 µM |  |  |  | 34.4 µM | 23.6 µM |  |
| O=C1OC(/C=C/c2ccccc2)C(=O)C1=O (stereo not drawn) |  | > 100 µM |  |  |  | > 100 µM |  | > 100 µM |  |  |  | > 100 µM |  | > 100 µM |  | > 100 µM |  |  |  |  |
| CCN(CC)[C@@H]1c2cc3c(cc2C(c2cc(OC)c(O)c(OC)c2)C2C(=O)CO[C@@H]21)OCO3 (stereo partly drawn) |  | > 100 µM |  |  |  | > 100 µM |  | > 100 µM |  | > 100 µM |  | > 100 µM |  | > 100 µM |  | > 100 µM |  | > 100 µM | > 100 µM |  |
| COC(=O)C1=CCS(=O)(=O)C1 |  | > 100 µM |  |  |  | > 100 µM |  | > 100 µM |  | > 100 µM |  |  |  | > 100 µM |  | > 100 µM |  | > 100 µM | > 100 µM |  |
| OCC1C2C=CC(O2)[C@H]1CO (stereo partly drawn) |  | > 100 µM |  |  |  | > 100 µM |  | > 100 µM |  | > 100 µM |  | > 100 µM |  | > 100 µM |  | > 100 µM |  | > 100 µM | > 100 µM |  |
| O=C(c1ccccc1)C(c1ccccc1)C1(O)C(=O)Nc2ccc(Br)cc21 (stereo not drawn) |  | > 100 µM |  |  |  | > 100 µM |  | > 100 µM |  | > 100 µM |  | 59.6 µM |  | > 100 µM |  | > 100 µM |  | > 100 µM |  |  |
| Cc1cc(=O)[nH]c2c1C(=O)C(=O)C=C2 | 38.2 µM | > 100 µM | 57.8 µM | > 100 µM | 28.2 µM | 47.7 µM | 24.1 µM | 52.8 µM | 32.7 µM | 73.9 µM | > 100 µM | > 100 µM | 24.7 µM | 67.8 µM |  |  | 16.8 µM | 32.7 µM | 36.9 µM | 16.7 µM |
| COc1ccc(S(=O)(=O)Nc2c(/C=C\c3cc(OC)c(OC)c(OC)c3)ccc(OC)c2O)cc1OC | 0.498 µM | > 100 µM | 0.256 µM |  | 0.0856 µM | 0.457 µM | 0.242 µM | > 100 µM | 0.416 µM | > 100 µM | 0.0776 µM | > 100 µM | 0.167 µM | > 100 µM |  |  | 0.484 µM | > 100 µM | 0.435 µM | 0.0985 µM |
| CCC1(O)CC(c2ccccc2)N(C)C(c2ccccc2)C1 (stereo not drawn) |  | > 100 µM |  |  |  | > 100 µM |  | > 100 µM |  | > 100 µM |  | > 100 µM |  | > 100 µM |  | > 100 µM |  | > 100 µM | > 100 µM |  |
| COc1ccc(/C=C\c2cc(OC)c(OC(C)=O)c(OC)c2)cc1 |  | 47.9 µM |  |  |  | 14.9 µM |  |  |  | 76.7 µM |  | 39.7 µM |  | > 100 µM |  |  |  | 30.8 µM | 20.5 µM |  |
| OC1/C(=C/c2ccccc2)CNC/C1=C\c1ccccc1 (stereo not drawn) |  | > 100 µM |  |  |  | > 100 µM |  | > 100 µM |  | > 100 µM |  | > 100 µM |  | > 100 µM |  | > 100 µM |  | > 100 µM | > 100 µM |  |
| OC1OC2COC(c3ccccc3)OC2C(O)C1O (stereo not drawn) |  | > 100 µM |  |  |  | > 100 µM |  | > 100 µM |  | > 100 µM |  | > 100 µM |  | > 100 µM |  |  |  | > 100 µM | > 100 µM |  |
| Cc1ccc(Sc2cc([N+](=O)[O-])cc(Sc3ccc(C)cc3)c2Sc2ccc(C)cc2)cc1 |  | > 100 µM |  |  |  | > 100 µM |  | > 100 µM |  | > 100 µM |  |  |  | > 100 µM |  | > 100 µM |  | > 100 µM | > 100 µM |  |
| CC/C(=C(/c1ccc(Cl)cc1)c1ccc(OCCCN(C)C)cc1)c1ccc(OC)cc1 | 1.06 µM | 2.42 µM | 1.13 µM | 2.89 µM | 4.08 µM | 11.6 µM | 0.918 µM | 1.87 µM | 8.05 µM | 17.6 µM | 6.56 µM | 13.7 µM | 1.16 µM | 2.96 µM | 1.16 µM | 3.45 µM | 5.05 µM | 11.8 µM |  |  |
| c1ccc2c(c1)-c1nc3ccccc3cc1C2N1CCOCC1 (stereo not drawn) |  | > 100 µM |  | > 100 µM |  |  |  | > 100 µM |  | > 100 µM |  | > 100 µM |  | > 100 µM |  | > 100 µM |  | > 100 µM | > 100 µM |  |
